Measured values: patent US20260240200A1, “COMPOSITION COMPRISING AN N-GUANYLAMINO ACID FOR DRINKING WATER APPLICATION” (Evonik Operations GmbH, priority 2023, published 2026)

Experiments:
[1] = 15° C.; cited from earlier work
[2] = Determination of the dissolution time in 10 L tap water, neither stirred nor moved; assay type: physicochemical; conditions: not stirred or moved
Method: The mixture was neither stirred nor moved. After 3 minutes there was no solid mixture at the bottom of the beaker.
A beaker with 10 L tap water was provided and 3 g (25.3 mmol) guanidinoacetic acid (GAA, powder, purchased from Gendone, China) was added. The powder sank to the bottom of the beaker. The mixture was not stirred or moved. After 4 days, no solid material was recognizable any more at the bottom of the beaker.

## N=C(N)NCC(=O)O [guanidinoacetic acid]
[1]
  solubility in water: 1 g in 278 ml water
[2]
  dissolution time (no solid material recognizable at the bottom of the beaker): ≤ 4 days
